{"source": "patent EP0019524A1", "about": "“Process for preparing flavilium derivatives, products obtained by the processus and their therapeutical application” (SOCIETE DE RECHERCHES INDUSTRIELLES SORI, priority 1979, dated 1980)", "key": {"[1]": {"assay": "Acute toxicity (LD50), method of Litchfield et al.", "conditions": "in vivo, ip; mouse, intraperitoneal route; read-out: DL-50 I.P. souris", "experimental": "La toxicité a été déterminée chez la souris par voie intrapéritonéale selon la méthode de J.T. LITCHFIELD et al., J. Pharmacol. Exptl. Therap. (1949), 96, 99. La DL-50 I.P. souris des produits III et IV est de 750 mg/kg. Les produits de formule (I) ne sont donc pas toxiques."}, "hématies": {"test_system": "hématies", "assay": "Erythrocyte deformability: filtration rate of erythrocyte suspension and plasma (Schmid-Schönbein technique) in hyperlipidemic monkeys", "format": "in vivo, singe", "conditions": "monkeys on hyperlipidic diet, 20 mg/kg per os per day for 8 months, mean, 5 µ filter, 50 mm water pressure", "source_text": "La déformabilité des hématies a été mesurée selon la technique de SCHMID-SCHONBEIN et al., Blut (1973), 26, 369-379, par filtration (diamètre des pores du filtre : 5µ) sous une pression constante de 50 mm d'eau, d'une suspension d'hématies amenée à un hématocrite de 10% par dilution dans un plasma autologue. La phase de suspension est également filtrée selon la même technique. On peut apprécier ainsi l'intensité de certaines maladies car le taux de filtration de la suspension d'hématies et/ou de la phase de plasma est modifié par les maladies du métabolisme telles que le diabète et l'hyperlipidémie.\nLe taux de filtration des hématies a été déterminé in vivo chez le singe rendu hyperlipidémique après absorption d'un régime gras. Les composés à tester ont été administrés per os à la dose quotidienne de 20 mg/kg pendant 8 mois à des lots de singes : un lot recevant un régime normal, un lot recevant un régime gras, les autres lots recevant le régime gras et un des composés à tester. Les résultats donnés dans le tableau ci-après sont exprimés sous forme d'une moyenne et représentent la vitesse de filtration des hématies ou du plasma en µl/s. La signification statistique des résultats est très bonne (p <( 0,001)."}, "patients": {"test_system": "patients", "assay": "Clinical trial in hyperlipidemic and hypertensive patients", "format": "in vivo", "conditions": "21 days", "experimental": "On a résumé enfin les résultats des essais cliniques qui ont été entrepris avec le composé III pendant 21 jours sur 65 patients (30 patients étant hyperlipidiques et les 35 autres patients souffrant d'hypertension artérielle), un lot de patients recevant 3 comprimés ou 3 glossettes par jour renfermant chacun 10 mg de composé III, un autre lot recevant une injection quotidienne de 10 mg de composé III. La tolérance de ce produit s'est révélée excellente puisque la condition de 51 patients (c'est-à-dire 78,4%) a été considérablement améliorée."}, "[2]": {"conditions": "of 65 patients (30 hyperlipidemic, 35 arterial hypertension), 3 x 10 mg oral/sublingual or 10 mg injection per day"}}, "data": [{"smiles": "C[C@@H]1O[C@@H](OC[C@H]2O[C@@H](Oc3cc4c(O)cc(O)cc4[o+]c3-c3ccc(O)c(O)c3)[C@H](O)[C@@H](O)[C@@H]2O)[C@H](O)[C@H](O)[C@H]1O", "note": "[composé III, chlorurede 3-[6-0-(6-désoxy-α-L-mannopyranosyl)-β-D-glucopy-ranosyloxy]-3',4',5,7-tétrahydroxy-flavylium]", "values": [{"measurement": "LD50", "setting": "[1]", "result": 750, "unit": "mg/kg"}, {"measurement": "Vitesse de filtration du plasma", "setting": "hématies", "result": "55,92 ± 4,78 µl/s"}, {"measurement": "Vitesse de filtration des hématies", "setting": "hématies; hematocrit 10%", "result": "43,97 ± 2,30 µl/s"}, {"measurement": "tolérance", "setting": "patients; 65 patients, 3 tablets or sublingual tablets of 10 mg per day, or one daily injection of 10 mg", "result": "excellente"}, {"measurement": "patients dont la condition a été considérablement améliorée", "setting": "patients; [2]", "result": "78,4%"}, {"measurement": "patients dont la condition a été considérablement améliorée (nombre)", "setting": "patients; [2]", "result": 51, "unit": "patients"}]}, {"smiles": "COc1cc(OC)c2cc(O[C@@H]3O[C@H](CO[C@@H]4O[C@@H](C)[C@H](O)[C@@H](O)[C@H]4O)[C@@H](O)[C@H](O)[C@H]3O)c(-c3ccc(OC)c(OC)c3)[o+]c2c1", "note": "[composé IV, chlorurede 3-[6-0-(6-désoxy-α-L-mannopyranosyl)-β-D-glucopyranosyloxy]-3',4', 5,7-tétraméthoxy-flavylium]", "values": [{"measurement": "LD50", "setting": "[1]", "result": 750, "unit": "mg/kg"}]}]}
